Results taken from patent publication US8846710B2, “Method of preferentially inducing the biosynthesis of interferon” (3M Innovative Properties Company, priority 2005, dated 2014).

Key:
interferon (α) (IFN-α) = test: Cytokine induction in human cells: IFN-α secreted by PBMC into culture media (ELISA); format: cell-based; conditions: for minimal effective concentration / Maximal Response IFN / Minimum Effective Concentration IFN: human PBMC; for minimal effective concentration: lowest tested concentration inducing IFN-α over usually 20 pg/mL, median where more than one experiment, read-out: Minimum Effective Concentration (μM) IFN; for Maximal Response (pg/mL) IFN: maximal response in dose response curve, median; for Maximal Response IFN / Minimum Effective Concentration IFN: median where tested in more than one experiment
Source text: (§1) Cytokine Induction in Human Cells
(§2) An in vitro human blood cell system is used to assess cytokine induction. Activity is based on the measurement of interferon (α) and tumor necrosis factor (α) (IFN-α and TNF-α, respectively) secreted into culture media as described by Testerman et. al. in “Cytokine Induction by the Immunomodulators Imiquimod and S-27609”, Journal of Leukocyte Biology, 58, 365-372 (September, 1995).
(§3) Blood Cell Preparation for Culture
(§4) Whole blood from healthy human donors is collected by venipuncture into vacutainer tubes or syringes containing EDTA. Peripheral blood mononuclear cells (PBMC) are separated from whole blood by density gradient centrifugation using HISTOPAQUE-1077 (Sigma, St. Louis, Mo.) or Ficoll-Paque Plus (Amersham Biosciences Piscataway, N.J.). Blood is diluted 1:1 with Dulbecco's Phosphate Buffered Saline (DPBS) or Hank's Balanced Salts Solution (HBSS). Alternately, whole blood is placed in Accuspin (Sigma) or LeucoSep (Oreiner Bio-One, Inc., Longwood, Fla.) centrifuge frit tubes containing density gradient medium. The PBMC layer is collected and washed twice with DPBS or HBSS and re-suspended at 4×10^6 cells/mL in RPMI complete. The PBMC suspension is added to 96 well flat bottom sterile tissue culture plates containing an equal volume of RPMI complete media containing test compound.
(§5) The compounds are solubilized in dimethyl sulfoxide (DMSO). The DMSO concentration should not exceed a final concentration of 1% for addition to the culture wells. The compounds are generally tested at concentrations ranging from 30-0.014 μM. Controls include cell samples with media only, cell samples with DMSO only (no compound), and cell samples with reference compound.
(§6) The solution of test compound is added at 60 μM to the first well containing RPMI complete and serial 3 fold dilutions are made in the wells. The PBMC suspension is then added to the wells in an equal volume, bringing the test compound concentrations to the desired range (usually 30-0.014 μM). The final concentration of PBMC suspension is 2×10^6 cells/mL. The plates are covered with sterile plastic lids, mixed gently and then incubated for 18 to 24 hours at 37° C. in a 5% carbon dioxide atmosphere.
(§7) Following incubation the plates are centrifuged for 10 minutes at 1000 rpm (approximately 200×g) at 4° C. The cell-free culture supernatant is removed and transferred to sterile polypropylene tubes. Samples are maintained at −30 to −70° C. until analysis. The samples are analyzed for IFN-α by ELISA and for TNF-α by IGEN/BioVeris Assay.
(§8) Interferon (α) and Tumor Necrosis Factor (α) Analysis
IFN-α concentration is determined with a human multi-subtype calorimetric sandwich ELISA (Catalog Number 41105) from PBL Biomedical Laboratories, Piscataway, N.J. Results are expressed in pg/mL.
(§9) In total, the data output of the assay consists of concentration values of TNF-α and IFN-α (y-axis) as a function of compound concentration (x-axis).
Analysis of the data has two steps. First, the greater of the mean DMSO (DMSO control wells) or the experimental background (usually 20 pg/mL for IFN-α and 40 pg/mL for TNF-α) is subtracted from each reading. If any negative values result from background subtraction, the reading is reported as “*”, and is noted as not reliably detectable. In subsequent calculations and statistics, “*”, is treated as a zero. Second, all background subtracted values are multiplied by a single adjustment ratio to decrease experiment to experiment variability. The adjustment ratio is the area of the reference compound in the new experiment divided by the expected area of the reference compound based on the past 61 experiments (unadjusted readings). […] The reference compound used is 2-[4-amino-2-ethoxymethyl-6,7,8,9-tetrahydro-α,α-dimethyl-1H-imidazo[4,5-c]quinolin-1-yl]ethanol hydrate (U.S. Pat. No. 5,352,784; Example 91) and the expected area is the sum of the median dose values from the past 61 experiments. […]

[1] = system: tumor necrosis factor (α) (TNF-α); test: Cytokine induction in human cells: TNF-α secreted by PBMC into culture media (ORIGEN M-Series immunoassay); format: cell-based; design: key to Maximal Response (pg/mL) TNF / Maximal Response TNF: If any negative values result from background subtraction, the reading is reported as “*”, and is noted as not reliably detectable; conditions: for minimal effective concentration / Minimum Effective Concentration TNF / Maximal Response TNF: human PBMC; for minimal effective concentration: lowest tested concentration inducing TNF-α over usually 40 pg/mL, median where more than one experiment, read-out: Minimum Effective Concentration (μM) TNF; for Maximal Response (pg/mL) TNF: maximal response in dose response curve; for Maximal Response (pg/mL) TNF / Maximal Response TNF: median; for Minimum Effective Concentration TNF: median where tested in more than one experiment
Source text: as §1, §2, §3, §4, §5, §6, §7, §8
The TNF-α concentration is determined by ORIGEN M-Series Immunoassay and read on an IGEN M-8 analyzer from BioVeris Corporation, formerly known as IGEN International, Gaithersburg, Md. The immunoassay uses a human TNF-α capture and detection antibody pair (Catalog Numbers AHC3419 and AHC3712) from Biosource International, Camarillo, Calif. Results are expressed in pg/mL.
as §9
Analysis of the data has two steps. First, the greater of the mean DMSO (DMSO control wells) or the experimental background (usually 20 pg/mL for IFN-α and 40 pg/mL for TNF-α) is subtracted from each reading. If any negative values result from background subtraction, the reading is reported as “*”, and is noted as not reliably detectable. In subsequent calculations and statistics, “*”, is treated as a zero. Second, all background subtracted values are multiplied by a single adjustment ratio to decrease experiment to experiment variability. The adjustment ratio is the area of the reference compound in the new experiment divided by the expected area of the reference compound based on the past 61 experiments (unadjusted readings). […]

[2] = Table 10, * = below experimental background level
[3] = Table 11, * = TNF below experimental background of 40 pg/mL
[4] = Table 8, background-subtracted, reference-adjusted
[5] = Table 12, * = below the experimental background of 40 pg/mL

## CCCc1nc2c(N)nc3cc(-c4cncc(CO)c4)ccc3c2n1CC(C)(C)O [Analog 17]
Interferon (α) (IFN-α); Table 10
  minimal effective concentration: 0.014 µM
Interferon (α) (IFN-α); [2]
  Maximal Response (pg/mL) IFN: 1079 pg/mL
[1]; Table 10
  minimal effective concentration: 0.12 µM
[1]; [2]
  Maximal Response (pg/mL) TNF: 16482 pg/mL

## Nc1nc2ccccc2c2c1nc(CCO)n2CCCCCCCCNC(=O)Nc1ccccc1 [Example 118]
Interferon (α) (IFN-α); Table 11
  Maximal Response IFN: 5177 pg/mL
  Minimum Effective Concentration IFN: 0.37 µM
[1]; Table 11
  Minimum Effective Concentration TNF: >30 µM
[1]; [3]
  Maximal Response TNF: *

## COCCc1nc2c(N)nc3ccccc3c2n1CCCNC(=O)c1cc2ccccc2cn1 [Analog 110]
Interferon (α) (IFN-α); Table 11
  Maximal Response IFN: 647 pg/mL
  Minimum Effective Concentration IFN: 0.12 µM
[1]; Table 11
  Minimum Effective Concentration TNF: 1.11 µM
[1]; [3]
  Maximal Response TNF: 6169 pg/mL

## CCOCc1nc2c(N)nc3ccccc3c2n1CCCNS(C)(=O)=O [Analog 61]
Interferon (α) (IFN-α); Table 11
  Maximal Response IFN: 1338 pg/mL
  Minimum Effective Concentration IFN: 0.37 µM
[1]; Table 11
  Minimum Effective Concentration TNF: 10 µM
[1]; [3]
  Maximal Response TNF: 463 pg/mL

## Nc1nc2cc(-c3cccnc3)ccc2c2c1nc(CO)n2CCCCNC(=O)NC1CCCC1 [Example 197]
Interferon (α) (IFN-α); [2]
  Maximal Response (pg/mL) IFN: 4373 pg/mL
[1]; [2]
  Maximal Response (pg/mL) TNF: 600 pg/mL

## CCOCc1nc2c(N)nc3cccnc3c2n1CC(C)(C)O [Analog 6, 1-(4-amino-2-ethoxymethyl-1H-imidazo[4,5-c][1,5]naphthyridin-1-yl)-2-methylpropan-2-ol]
Interferon (α) (IFN-α); [4]
  Maximal Response (pg/mL) IFN: 658 pg/mL
Interferon (α) (IFN-α); Table 12
  Maximal Response IFN: 1674 pg/mL
[1]; [4]
  Maximal Response (pg/mL) TNF: 4921 pg/mL
[1]; [5]
  Maximal Response TNF: 7275 pg/mL

## COCCc1nc2c(N)nc3ccccc3c2n1CC(C)(C)CN [Analog 100]
Interferon (α) (IFN-α); Table 11
  Maximal Response IFN: 571 pg/mL
  Minimum Effective Concentration IFN: 0.014 µM
[1]; Table 11
  Minimum Effective Concentration TNF: 0.04 µM
[1]; [3]
  Maximal Response TNF: 17626 pg/mL

## CCCc1nc2c(N)nc3ccccc3c2n1CCCCCS(C)(=O)=O [Analog 75]
Interferon (α) (IFN-α); Table 11
  Maximal Response IFN: 828 pg/mL
  Minimum Effective Concentration IFN: 0.12 µM
[1]; Table 11
  Minimum Effective Concentration TNF: 1.11 µM
[1]; [3]
  Maximal Response TNF: 848 pg/mL

## CCOCc1nc2c(N)nc3cc(-c4cncc(CO)c4)ccc3c2n1CC1CCCCC1 [Analog 45]
Interferon (α) (IFN-α); Table 10
  minimal effective concentration: 0.014 µM
Interferon (α) (IFN-α); [2]
  Maximal Response (pg/mL) IFN: 1062 pg/mL
[1]; Table 10
  minimal effective concentration: 1.11 µM
[1]; [2]
  Maximal Response (pg/mL) TNF: 2865 pg/mL

## COCc1nc2c(N)nc3ccccc3c2n1CC(C)(C)NS(C)(=O)=O [Analog 47]
Interferon (α) (IFN-α); Table 11
  Maximal Response IFN: 1638 pg/mL
  Minimum Effective Concentration IFN: 0.37 µM
[1]; Table 11
  Minimum Effective Concentration TNF: 3.33 µM
[1]; [3]
  Maximal Response TNF: 7151 pg/mL

## CCCc1nc2c(N)nc3ccccc3c2n1CCNS(C)(=O)=O [Analog 70]
Interferon (α) (IFN-α); Table 11
  Maximal Response IFN: 2003 pg/mL
  Minimum Effective Concentration IFN: 30 µM
[1]; Table 11
  Minimum Effective Concentration TNF: 10 µM
[1]; [3]
  Maximal Response TNF: 11432 pg/mL

## Nc1nc2ccccc2c2c1nc(CCO)n2CCCCNC(=O)c1cnc2ccccc2c1 [Example 116]
Interferon (α) (IFN-α); Table 11
  Maximal Response IFN: 8361 pg/mL
  Minimum Effective Concentration IFN: 0.37 µM
[1]; Table 11
  Minimum Effective Concentration TNF: 30 µM
[1]; [3]
  Maximal Response TNF: 1112 pg/mL

## COCCc1nc2c(N)nc3cc(-c4cccnc4)ccc3c2n1CCCN1CCCC1=O [Analog 39]
Interferon (α) (IFN-α); Table 10
  minimal effective concentration: 0.12 µM
Interferon (α) (IFN-α); [2]
  Maximal Response (pg/mL) IFN: 753 pg/mL
[1]; Table 10
  minimal effective concentration: 1.11 µM
[1]; [2]
  Maximal Response (pg/mL) TNF: 380 pg/mL

## CCOCc1nc2c(N)nc3ccccc3c2n1CCNC(=O)NC(C)C [Analog 125]
Interferon (α) (IFN-α); Table 11
  Maximal Response IFN: 2045 pg/mL
  Minimum Effective Concentration IFN: 0.37 µM
[1]; Table 11
  Minimum Effective Concentration TNF: 10 µM
[1]; [3]
  Maximal Response TNF: 7512 pg/mL

## Nc1nc2cc(-c3cccnc3)ccc2c2c1nc(CO)n2CCCCNC(=O)C1CCCC1 [Example 198]
Interferon (α) (IFN-α); [2]
  Maximal Response (pg/mL) IFN: 2745 pg/mL
[1]; [2]
  Maximal Response (pg/mL) TNF: 410 pg/mL

## COCCc1nc2c(N)nc3ccccc3c2n1CCCCCCCCNC(=O)Nc1ccccc1 [Analog 117]
Interferon (α) (IFN-α); Table 11
  Maximal Response IFN: 1257 pg/mL
  Minimum Effective Concentration IFN: 0.014 µM
[1]; Table 11
  Minimum Effective Concentration TNF: 0.12 µM
[1]; [3]
  Maximal Response TNF: 1372 pg/mL

## CC(C)(O)Cn1c(CO)nc2c(N)nc3cccnc3c21 [Example 148, 1-(4-Amino-2-hydroxymethyl-1H-imidazo[4,5-c][1,5]naphthyridin-1-yl)-2-methylpropan-2-ol]
Interferon (α) (IFN-α); [4]
  Maximal Response (pg/mL) IFN: 3038 pg/mL
Interferon (α) (IFN-α); Table 12
  Maximal Response IFN: 2290 pg/mL
[1]; [4]
  Maximal Response (pg/mL) TNF: 684 pg/mL
[1]; [5]
  Maximal Response TNF: 1316 pg/mL

## Cc1ccc(S(=O)(=O)NCCCn2c(CCO)nc3c(N)nc4ccccc4c32)cc1 [Example 1, N-{3-[4-Amino-2-(2-hydroxyethyl)-1H-imidazo[4,5-c]quinolin-1-yl]propyl}-4-methylbenzenesulfonamide]
Interferon (α) (IFN-α); Table 11
  Maximal Response IFN: 1072 pg/mL
[1]; [3]
  Maximal Response TNF: 143 pg/mL

## CCOCc1nc2c(N)nc3ccccc3c2n1CCCCNC(=O)N1CCOCC1 [Analog 56]
Interferon (α) (IFN-α); Table 11
  Maximal Response IFN: 3433 pg/mL
  Minimum Effective Concentration IFN: 0.12 µM
[1]; Table 11
  Minimum Effective Concentration TNF: 1.11 µM
[1]; [3]
  Maximal Response TNF: 1580 pg/mL
